For one compound, starch degradation rate results are on record in patent US10422079B2, “Method for preserving recycled fiber by using biocides in paper manufacturing and method for manufacturing paper using recycled fibers” (ECOLAB USA INC., priority 2014, dated 2019).

The test has as its system pulp contaminated by the microbes (bacteria). As to the kind of experiment: Starch degradation in microbe-inoculated recycled-fiber (AOCC) pulp treated with biocides, 5 days (Example 4). The note with it: total chlorine 20 ppm, added once a day, combinations 10 ppm + 10 ppm. In kind it is cell-based. Here is the method: 150 g standard American Old Corrugated Containers (sometimes called as AOCC) were weighted. The total starch content of the recycled American Old Corrugated Containers was detected according to the same starch measuring method of example 2, and the result was 9.1%.
In the pulping and papermaking process, the above waste paper was cut into pieces and immersed into 15 kilograms water overnight. The obtained sample was disintegrated by Valley Beater for 30 minutes and pulped for 20 minutes, and the pulp concentration thereof is about 1%.
The above obtained pulp was inoculated by the pulp which was contaminated by bacteria in the ratio of one to thousand, followed by cultivating for 3 hours at 37° C. The simulation pulp contaminated by the microbes was obtained to use for the following experiment. The pH, oxidation-reduction potential (ORP), concentration of adenosine triphosphate (ATP) and total number of aerobic bacteria colonies of the pulp which was contaminated initially by the microbes were detected. […]
The above substances were added into the pulps once a day and the concentrations of the total chlorine were maintained at 20 ppm by controlling the addition doses. The whole experiment was conducted for 5 days and the total starches contents were monitored.

For `OCl` [sodium hypochlorite], the starch degradation rate stood at 5%.
